Results: EP2057185B1, “POLYMYXIN DERIVATIVES AND USES THEREOF” (Northern Antibiotics Oy, priority 2006, dated 2008)
Bridge positions count the residues as written; N and C are the ends. Square brackets hold non-standard residues; d marks the D form. Peptide text beside a SMILES is read from it. Dab = NCC[C@H](N)C(=O)O; Abu = CC[C@H](N)C(=O)O

Assays:
[1] = test system: K. pneumoniae ATCC13883; experiment: MIC by E-strips on Mueller-Hinton agar with or without NAB7061 (4 µg/ml); type: cell-based, Klebsiella pneumoniae; settings: ratio of the MIC of the antibiotic in the absence of NAB 7061 to that in the presence of 4 µg/ml of NAB 7061; K. pneum. ATCC 13883
Description: (§1) MICs were determined by using E-strips (Biodisk Ltd., Solna, Sweden) according to the manufacturer's instructions.
(§2) The strains originated from ATCC (11 strains), CCUG (11 strains), and NCTC (The National Collection of Type Cultures, Colindale, U.K.; 2 strains). Eight strains (the F-strains) were purchased from Mobidiag Ltd., Helsinki, Finland.

[2] = test system: E. coli ATCC25922; experiment: as above; type: cell-based, Escherichia coli; settings: ratio of the MIC of the antibiotic in the absence of NAB 7061 to that in the presence of 4 µg/ml of NAB 7061; E. coli ATCC 25922
Description: as §1, §2

[3] = test system: E. coli IH3080; experiment: as above; type: cell-based, Escherichia coli; settings: ratio of the MIC of the antibiotic in the absence of NAB 7061 to that in the presence of 4 µg/ml of NAB 7061; E. coli IH 3080
Description: as §1, §2

[4] = test system: E. coli (ATCC25922 and IH3080), K. pneumoniae ATCC13883, and E. cloacae ATCC23355; experiment: E-strip MIC, summary over the tested strains of Example 7; type: cell-based; settings: range over the tested strains; NAB7061 4 µg/ml
Description: as §1

[5] = test system: E. cloacae ATCC23355; experiment: MIC by E-strips on Mueller-Hinton agar with or without NAB7061 (4 µg/ml); type: cell-based, Enterobacter cloacae; settings: ratio of the MIC of the antibiotic in the absence of NAB 7061 to that in the presence of 4 µg/ml of NAB 7061; E. cloacae ATCC 23355
Description: as §1, §2

[6] = test system: E. coli IH3080; experiment: Growth inhibition around wells on LB agar plates; type: cell-based, Escherichia coli; settings: 18 h at 37°C; for Antibacterial activity at 4 µg: growth inhibition area around a well containing 4 µg of compound; for Antibacterial activity at 10 µg: growth inhibition area around a well containing 10 µg of compound
Description: Peptides synthesized in Example 1, all carrying at least two (2) but not more than three (3) positive charges, were studied for their ability to inhibit the growth of E. coli. This was tested employing LB agar (LB Agar Lennox, Difco, BD, Sparks, MD, U.S.A) plates. The indicator organism E. coli IH3080 (K1:O18) was an encapsulated strain originally isolated from a neonate suffering from meningitis (Vaara et al. 1984) and obtained from National Public Health Institute, Helsinki, Finland.
(§3) From an overnight-grown culture of IH3080 on LB agar, a suspension of approx. 10^8 cells/ml was prepared in 0.9% NaCl. Aliquots of this suspension were then pipetted on the agar plates and the plates were gently shaken to spread the suspension evenly on the entire surface of the plate. Thereafter, the unabsorbed part of the suspension was removed by using a Pasteur pipette. After the surface had dried, small wells (diameter, 2 mm) were drilled on the plates (five wells per plate) by using a sterile sharp-edged narrow metal tube, single-use pipette tip, and vacuum suction. […] Controls included 0.9% NaCl solution without the compound to be tested. The plates were then incubated for 18 h at 37°C whereafter the diameters of growth inhibition zones around each well were measured; the diameter of the well itself was […]. Finally, the diameters were converted to surface areas of growth inhibition (in square mm).

[7] = test system: E. coli IH3080; experiment: Growth inhibition around wells on LB plates containing rifampin (sensitization); type: cell-based, Escherichia coli; settings: well containing 4 µg of compound; for Antibacterial activity in the presence of rifampin concn (µg/ml) of 0: plates with no rifampin; for Antibacterial activity in the presence of rifampin concn (µg/ml) of 0.1: rifampin 0.1 µg/ml; for Antibacterial activity in the presence of rifampin concn (µg/ml) of 1.0: rifampin 1.0 µg/ml
Description: as §3, with “mm). […] Louis, MO, U.S.A).” for “mm).”

[8] = test system: Ac. baumannii F263; experiment: MIC by E-strips on Mueller-Hinton agar with or without NAB7061 (4 µg/ml); type: cell-based, Acinetobacter baumannii; settings: A. baumannii F263; NAB 7061 4 µg/ml
Description: as §1, §2

[9] = test system: Ac. baumannii F264; experiment: as above; type: cell-based, Acinetobacter baumannii; settings: A. baumannii F264; NAB 7061 4 µg/ml
Description: as §1, §2

| Compound | Sensitization factor [1] | Sensitization factor [2] | Sensitization factor [3] | Sensitization factor [5] | also measured |
| --- | --- | --- | --- | --- | --- |
| CC[C@H]1OC(=O)[C@H](C)[C@@H](O[C@H]2C[C@@](C)(OC)[C@@H](O)[C@H](C)O2)[C@H](C)[C@@H](O[C@@H]2O[C@H](C)C[C@H](N(C)C)[C@H]2O)[C@](C)(O)C[C@@H](C)CN(C)[C@H](C)[C@@H](O)[C@]1(C)O [Azithromycin, azithromycin] | 31 - 43 | 24 - 64 | 31 - 94 | 32 | Sensitization factor [4]: 31-94 |
| CC[C@H]1OC(=O)[C@H](C)[C@@H](O[C@H]2C[C@@](C)(OC)[C@@H](O)[C@H](C)O2)[C@H](C)[C@@H](O[C@@H]2O[C@H](C)C[C@H](N(C)C)[C@H]2O)[C@](C)(O)C[C@@H](C)C(=O)[C@H](C)[C@@H](O)[C@]1(C)O [Erythromycin, erythromycin] | 24 - 48 | 32 - 48 | 32 - 42 | 21 - 43 | Sensitization factor [4]: 21-48 |
| CC(=O)O[C@H]1C[C@@]2(C)[C@@H](C[C@@H](O)[C@H]3[C@@]4(C)CC[C@@H](O)[C@@H](C)[C@@H]4CC[C@@]32C)/C1=C(\CCC=C(C)C)C(=O)O [Fusidic acid, fusidic acid] | > 4 | > 43 | > 43 | > 8 |  |
| CC(=O)NC[C@H]1CN(c2ccc(N3CCOCC3)c(F)c2)C(=O)O1 [Linezolid, linezolid] | > 4 | > 11 | > 8 | > 8 |  |
| C/C(=C\C(=O)OCCCCCCCCC(=O)O)C[C@@H]1OC[C@H](C[C@@H]2O[C@H]2[C@@H](C)[C@H](C)O)[C@@H](O)[C@H]1O [Mupirocin, mupirocin] | 24 - 32 | 64 - 170 | 64 - 85 | 250 - 512 | Sensitization factor [4]: 24-512 |
| CC[C@@H]1NC(=O)[C@H](CC(C)C)NC(=O)[C@@H](Cc2ccccc2)NC(=O)[C@H](CCN)NC(=O)[C@@H](NC(=O)[C@H](CCN)NC(=O)[C@@H](N)[C@@H](C)O)CCNC(=O)[C@H]([C@@H](C)O)NC(=O)[C@H](CC)NC1=O [NAB 701] (H-T[Dab][Dab][Dab][dF]L[Abu][Abu]T; lactam 3-C) |  |  |  |  | Antibacterial activity at 4 µg [6]: 0 square millimeters; Antibacterial activity at 10 µg [6]: 0 square millimeters; Antibacterial activity in the presence of rifampin concn (µg/ml) of 0 [7]: 0 square millimeters; Antibacterial activity in the presence of rifampin concn (µg/ml) of 0.1 [7]: 0 square millimeters; Antibacterial activity in the presence of rifampin concn (µg/ml) of 1.0 [7]: 0 square millimeters |
| CC[C@H](NC(=O)[C@@H](N)[C@@H](C)O)C(=O)N[C@H]1CCNC(=O)[C@H]([C@@H](C)O)NC(=O)[C@H](CCN)NC(=O)[C@H](CCN)NC(=O)[C@H](CC(C)C)NC(=O)[C@@H](Cc2ccccc2)NC(=O)[C@H](CCN)NC1=O [NAB 704] (H-T[Abu][Dab][Dab][dF]L[Dab][Dab]T; lactam 3-C) |  |  |  |  | Antibacterial activity at 4 µg [6]: 0 square millimeters; Antibacterial activity at 10 µg [6]: 0 square millimeters; Antibacterial activity in the presence of rifampin concn (µg/ml) of 0 [7]: 0 square millimeters; Antibacterial activity in the presence of rifampin concn (µg/ml) of 0.1 [7]: 0 square millimeters; Antibacterial activity in the presence of rifampin concn (µg/ml) of 1.0 [7]: 24 square millimeters |
| CC[C@H](NC(=O)[C@@H](NC(=O)[C@@H](N)CC)[C@@H](C)O)C(=O)N[C@H]1CCNC(=O)[C@H]([C@@H](C)O)NC(=O)[C@H](CCN)NC(=O)[C@H](CCN)NC(=O)[C@H](CC(C)C)NC(=O)[C@@H](Cc2ccccc2)NC(=O)[C@H](CCN)NC1=O [NAB 705] (H-[Abu]T[Abu][Dab][Dab][dF]L[Dab][Dab]T; lactam 4-C) |  |  |  |  | Antibacterial activity at 4 µg [6]: 0 square millimeters; Antibacterial activity at 10 µg [6]: 0 square millimeters; Antibacterial activity in the presence of rifampin concn (µg/ml) of 0 [7]: 0 square millimeters; Antibacterial activity in the presence of rifampin concn (µg/ml) of 0.1 [7]: 0 square millimeters; Antibacterial activity in the presence of rifampin concn (µg/ml) of 1.0 [7]: 5 square millimeters |
| CO[C@H]1/C=C/O[C@@]2(C)Oc3c(C)c(O)c4c(O)c(c(/C=N/N5CCN(C)CC5)c(O)c4c3C2=O)NC(=O)/C(C)=C\C=C\[C@H](C)[C@H](O)[C@@H](C)[C@@H](O)[C@@H](C)[C@H](OC(C)=O)[C@@H]1C [Rifampin, rifampin] | 250 - 500 | 250 - 750 | 170 - 350 | 750 - 1500 |  |
| COc1cc(Cc2cnc(N)nc2N)cc(OC)c1OC [Trimetoprim] | 2 |  | 3 | 3 |  |
| CN[C@H](CC(C)C)C(=O)N[C@H]1C(=O)N[C@@H](CC(N)=O)C(=O)N[C@H]2C(=O)N[C@H]3C(=O)N[C@H](C(=O)N[C@H](C(=O)O)c4cc(O)cc(O)c4-c4cc3ccc4O)[C@H](O)c3ccc(c(Cl)c3)Oc3cc2cc(c3O[C@@H]2O[C@H](CO)[C@@H](O)[C@H](O)[C@H]2O[C@H]2C[C@](C)(N)[C@H](O)[C@H](C)O2)Oc2ccc(cc2Cl)[C@H]1O [Vancomycin, vancomycin] | 1 | 5 | 2.5 | 32 |  |
| CO/N=C(\C(=O)N[C@@H]1C(=O)N2C(C(=O)O)=C(COC(C)=O)CS[C@H]12)c1csc(N)n1 [cefotaxime] |  | < 2 |  |  |  |
| CC(C)(O/N=C(\C(=O)N[C@@H]1C(=O)N2C(C(=O)[O-])=C(C[n+]3ccccc3)CS[C@H]12)c1csc(N)n1)C(=O)O [ceftazidime] |  | < 2 |  |  |  |
| C[C@@H](O)[C@H]1C(=O)N2C(C(=O)O)=C(SCCN=CN)C[C@H]12 [imipenem] |  |  |  |  | MIC (µg/ml) at the indicated concn (µg/ml) of NAB 7061: 4 [8]: 8 µg/mL; MIC (µg/ml) at the indicated concn (µg/ml) of NAB 7061: 4 [9]: 6 µg/mL |
| C[C@H]1COc2c(N3CCN(C)CC3)c(F)cc3c(=O)c(C(=O)O)cn1c23 [levofloxacin] |  | < 2 |  |  |  |
| C[C@@H](O)[C@H]1C(=O)N2C(C(=O)O)=C(S[C@@H]3CN[C@H](C(=O)N(C)C)C3)[C@H](C)[C@H]12 [meropenem] |  | < 2 |  |  | MIC (µg/ml) at the indicated concn (µg/ml) of NAB 7061: 4 [8]: 6 µg/mL; MIC (µg/ml) at the indicated concn (µg/ml) of NAB 7061: 4 [9]: 4 µg/mL |
| CCN1CCN(C(=O)N[C@@H](C(=O)N[C@@H]2C(=O)N3[C@@H]2SC(C)(C)[C@@H]3C(=O)O)c2ccccc2)C(=O)C1=O [piperacillin] |  | < 2 |  |  |  |
| NC[C@H]1O[C@H](O[C@H]2[C@H](O)[C@@H](O[C@H]3O[C@H](CO)[C@@H](O)[C@H](N)[C@H]3O)[C@H](N)C[C@@H]2N)[C@H](N)C[C@@H]1O [tobramycin] |  | < 2 |  |  |  |
| quinupristin-dalfopristin [Quinupristin-dalfopr.] | 1 | > 21 | > 21 | > 5 |  |
